Here are results for 13 compounds from publication PMC5956890 (Journal of medicinal chemistry, 2017).

Molecules are shown by their SMILES. Where a name gives a salt, the structure may show the parent alone. Some results are limits rather than exact numbers.

Test [1] concerns hBM-MSCs. Description: adiponectin production during adipogenesis in hBM-MSCs. To be noted: for adiponectin production during adipogenesis: compared to IDX control; for adipogenesis in hBM-MSCs: compared to control.
Test [2] addresses T1, PPARγ (Homo sapiens, UniProt P37231).
T1 sequence (P37231 235-505 limits assumed): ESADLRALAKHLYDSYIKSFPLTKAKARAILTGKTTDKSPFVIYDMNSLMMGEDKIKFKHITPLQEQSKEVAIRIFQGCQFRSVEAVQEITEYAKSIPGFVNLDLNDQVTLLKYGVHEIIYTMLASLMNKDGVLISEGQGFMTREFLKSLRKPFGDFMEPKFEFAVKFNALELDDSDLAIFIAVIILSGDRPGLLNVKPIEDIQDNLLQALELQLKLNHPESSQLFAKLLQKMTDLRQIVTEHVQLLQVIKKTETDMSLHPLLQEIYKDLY
Put plainly: TR-FRET competitive binding assay PPARγ. The note with it: concentration-response. Background: In TR-FRET formats the signal depends on donor and acceptor labels being close together.

Test [3] relates to hBM-MSCs. Description: Oil Red O staining of lipid droplets in hBM-MSCs. The test is classed as cell-based, human. The note with it: compared with IDX control, 7th day.
Test [4] has as its system human AR-transfected murine osteoblast precursor cell line 7F2. The note with it: cited from earlier work.
Test [5] addresses T2, PPARδ (Homo sapiens, UniProt Q03181).
T2 sequence (Q03181 1-441): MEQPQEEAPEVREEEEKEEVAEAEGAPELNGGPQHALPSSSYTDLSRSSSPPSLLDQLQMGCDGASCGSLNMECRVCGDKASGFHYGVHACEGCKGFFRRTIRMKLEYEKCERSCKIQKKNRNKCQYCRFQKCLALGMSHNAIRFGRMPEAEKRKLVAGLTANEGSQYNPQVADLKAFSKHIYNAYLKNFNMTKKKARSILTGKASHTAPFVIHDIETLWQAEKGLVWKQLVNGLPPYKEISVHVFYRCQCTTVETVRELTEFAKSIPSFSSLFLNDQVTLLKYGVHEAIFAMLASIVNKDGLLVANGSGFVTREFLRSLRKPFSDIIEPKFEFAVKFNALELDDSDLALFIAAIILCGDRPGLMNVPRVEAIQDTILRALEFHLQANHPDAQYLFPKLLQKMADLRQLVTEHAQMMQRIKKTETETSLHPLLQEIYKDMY
Description: TR-FRET competitive binding assay PPARδ. To be noted: concentration-response.

Test [6] has as its system ANGPTL4 and PDK4 gene transcription. Put plainly: Q-RT-PCR of ANGPTL4 and PDK4 mRNA in hBM-MSCs. It counts as cell-based, human. The note with it: 3rd day after induction of adipogenesis.
Test [7] deals with T3, PPARα (Homo sapiens, UniProt Q07869).
T3 sequence (Q07869 200-468 limits assumed): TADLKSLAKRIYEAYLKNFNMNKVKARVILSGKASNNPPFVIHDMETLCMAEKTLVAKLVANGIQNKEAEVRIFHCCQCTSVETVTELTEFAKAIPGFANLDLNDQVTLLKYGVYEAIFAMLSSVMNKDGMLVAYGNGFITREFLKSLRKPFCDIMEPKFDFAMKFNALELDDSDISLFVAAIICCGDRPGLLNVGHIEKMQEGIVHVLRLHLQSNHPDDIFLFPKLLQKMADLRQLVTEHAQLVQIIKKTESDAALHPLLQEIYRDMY
Description: TR-FRET competitive binding assay PPARα. To be noted: up to 20 µM.

Test [8] deals with T4, PPARδ (Homo sapiens, UniProt Q03181).
T4 sequence (Q03181 211-439 limits assumed): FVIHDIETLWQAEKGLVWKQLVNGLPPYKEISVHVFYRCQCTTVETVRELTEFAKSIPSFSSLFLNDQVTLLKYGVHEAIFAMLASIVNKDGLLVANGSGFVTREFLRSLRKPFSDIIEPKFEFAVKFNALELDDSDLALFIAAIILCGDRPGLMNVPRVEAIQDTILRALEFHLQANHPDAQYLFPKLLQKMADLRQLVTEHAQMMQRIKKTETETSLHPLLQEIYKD
Put plainly: TR-FRET PPARδ coactivator assay. It counts as biochemical. To be noted: compound alone.

The target in test [9] is T4, PPARδ. Description: TR-FRET PPARδ corepressor assay. It counts as biochemical. To be noted: SMRT-ID2 peptide.
The test system of test [10] is STZ-induced diabetic C57BL/6J mice. Description: STZ-induced diabetes mouse model. It counts as in vivo. To be noted: oral 20 mg/kg for 5 days, male C57BL/6J.

Regarding `Nc1ncnc2c1ncn2[C@@H]1O[C@H](CO)[C@@H](O)[C@H]1O` [adenosine], in [1], the “adiponectin production during adipogenesis” value is “no significant effect”.
For the compound `COc1ccc(Cl)cc1C(=O)NCCc1ccc(S(=O)(=O)NC(=O)NC2CCCCC2)cc1` [glibenclamide], in test [2], the “PPARγ binding activity” value is listed as “showed PPARγ binding activity”.
On to `Cn1c(=O)c2c(ncn2C)n(C)c1=O` [caffeine], for which the “lipid droplets in differentiated adipocytes (ORO staining)” value in [3] was “decreased them”. Also, the “adipogenesis in hMSCs” value in test [1] (1 mM) is “inhibited adipogenesis”.
Take `CNC(=O)[C@@]12C[C@@H]1[C@@H](n1cnc3c(NCc4cccc(Cl)c4)nc(C#Cc4ccc(F)c(F)c4)nc31)[C@H](O)[C@@H]2O` [Compound 17, (1S,2R,3S,4R,5S)-4-[6-[[(3-chlorophenyl)methyl]-amino]-2-[2-(3,4-difluorophenyl)ethynyl]-9H-purin-9-yl]-2,3-dihydroxy-N-methylbicyclo[3.1.0]hexane-1-carboxamide]: the “adipogenesis in hBM-MSCs” value in test [1] is given as “no effect on adipogenesis”.
`CCNC(=O)[C@H]1O[C@@H](n2cnc3c(N)nc(NCCc4ccc(CCC(=O)O)cc4)nc32)[C@H](O)[C@@H]1O` [Compound 16, 2-p-(2-carboxyethyl)phenethylamino-5′-N-ethylcarboxamidoadenosine hydrochloride hydrate]: the “adiponectin production during adipogenesis” value in test [1] is reported as “no significant effect”.
Regarding `OC[C@H]1O[C@@H](n2cnc3c(NC4CCCC4)nc(Cl)nc32)[C@H](O)[C@@H]1O` [Compound 14, 2-chloro-N^6-cyclopentyladenosine], the “increase of adipocyte differentiation” value in [4] is 20–30%. For the same compound, in [1], the “adiponectin production during adipogenesis” value is on record as “no significant effect” and the “adipogenesis in hBM-MSCs” value is on record as “did not significantly promote adipogenesis”.
Consider `CNC(=O)[C@H]1S[C@@H](n2cnc3c(NCc4cccc(I)c4)nc(Cl)nc32)[C@H](O)[C@@H]1O` [Compound 1d], for which the “PPARδ binding activity” value in [5] is “most potent inhibitor among A3 AR agonists”.
On to `Cc1cc(SCc2sc(-c3ccc(C(F)(F)F)cc3)nc2C)ccc1OCC(=O)O` [Compound 22, 2-[2-methyl-4-[[[4-methyl-2-[4-(trifluoromethyl)phenyl]-5-thiazolyl]methyl]thio]phenoxy]acetic acid], for which, in test [6], the “ANGPTL4 mRNA level” value was “significantly increased ANGPTL4 and PDK4 gene transcription”; the “PDK4 mRNA level” value is “significantly increased ANGPTL4 and PDK4 gene transcription”.
With `CNC(=O)[C@H]1S[C@@H](n2cnc3c(NCc4cccc(I)c4)ncnc32)[C@H](O)[C@@H]1O` [Compound 1c], in test [7], the “replacement of labeled PPARα ligand binding” value was not above 50%. The “PPARγ binding activity” value in [2] is recorded as “very weak binding activity”. Besides, the “recruitment of labeled coactivator peptide to PPARδ” value in [8] is recorded as “no effect on the recruitment of the labeled coactivator peptide”. Moreover, the “interaction between PPARδ and corepressor peptide” value in test [9] was “enhanced the interaction of PPARδ with the corepressor peptide”. Also, in [10], the “serum glucose levels” value was “significantly decreased serum glucose levels” and the “serum triglyceride levels” value is recorded as “downregulated serum triglyceride levels”.
Take `O=C(NCCS(=O)(=O)c1ccc(C(F)(F)F)cn1)c1ccc(Cl)cc1` [Compound 24, 4-chloro-N-[2-[[5-(trifluoromethyl)-2-pyridinyl]sulfonyl]ethyl]benzamide]: in test [9], the “interaction between PPARδ and corepressor peptide” value is “significantly promoted the recruitment of the corepressor peptide”. In test [6], the “ANGPTL4 mRNA level” value was “did not affect ANGPTL4 and PDK4 mRNA levels”; the “PDK4 mRNA level” value is “did not affect ANGPTL4 and PDK4 mRNA levels”.
Turning to `CCNC(=O)[C@H]1O[C@@H](n2cnc3c(N)ncnc32)[C@H](O)[C@@H]1O` [Compound 15, 5′-(N-ethylcarboxamido) adenosine], in [4], the “increase of adipocyte differentiation” value is 20–30%. Moreover, in test [1], the “adiponectin production during adipogenesis” value was “no significant effect” and the “adipogenesis in hBM-MSCs” value is recorded as “did not significantly promote adipogenesis”.
For `COC(=O)c1sccc1S(=O)(=O)Nc1ccc(Nc2ccccc2)cc1OC` [Compound 23, 3-[[[2-methoxy-4-(phenylamino)phenyl]-amino]sulfonyl]-2-thiophenecarboxylic acid methyl ester], in test [6], the “ANGPTL4 mRNA level” value is “did not affect ANGPTL4 and PDK4 mRNA levels”; the “PDK4 mRNA level” value is “did not affect ANGPTL4 and PDK4 mRNA levels”.
As for `CCCn1cc2c(nc(NC(=O)Nc3ccc(OC)cc3)n3nc(-c4ccco4)nc23)n1` [Compound 18, N-[2-(2-furanyl)-8-propyl-8H-pyrazolo[4,3-e][1,2,4]triazolo[1,5-c]pyrimidin-5-yl]-N′-(4-methoxyphenyl)-urea], in [1], the “adipogenesis in hBM-MSCs” value is “no effect on adipogenesis”.
